Measurements as given in article PMC4533833 (ACS chemical biology, 2015).
Where two headings read alike, the source gives them in different places.

How the values were obtained:
V561M FGFR1 = assay: Intrinsic protein fluorescence quenching titration, V561M FGFR1; format: binding, Human; details: for fold decrease in affinity (increase in Kd) for V561M relative to WT FGFR1: Kd V561M FGFR1 versus Kd WT FGFR1
FGFR1 [1] = details: read-out: IC50 (enzyme); cited from earlier work
FGFR1 [2] = details: read-out: IC50 (cells); cited from earlier work

Row | Compound | fold decrease in affinity (increase in Kd) for V561M relative to WT FGFR1 (V561M FGFR1) | IC50 (FGFR1 [1]) | IC50 (FGFR1 [2]) | fold greater loss of affinity for E3810 compared to AZD4547 conferred by the V561M FGFR1 mutation (V561M FGFR1; E3810 versus AZD4547)
1 | AZD4547 | 32 fold | 0.2 nM | 12 nM | –
2 | CNC(=O)c1cccc2cc(Oc3ccnc4cc(OCC5(N)CC5)c(OC)cc34)ccc12 [E3810] | 5000 fold | – | – | over 150 fold
